Reference: patent US20240360247A1, “COMPOSITIONS AND METHODS FOR TREATMENT OF CANCER” (Johns Hopkins University, priority 2021, published 2024)

Columns and labels:
HCT-116 cells [1] = assay: Effect of D-PDMP on cell proliferation (3H-thymidine incorporation); format: cell-based, human
Experimental: HCT-116 cells were seeded (10^4/well) in 96-well sterile plastic plates, and grown for 24 h in complete medium, with 10% fetal calf serum. The media was then replaced with 2% serum-containing media (100 μL) plus ^3H-thymidine ([…]), with and without D-PDMP. After another 24 h incubation, incorporation of ^3H-thymidine into DNA was measured by scintillation spectrometry.

UGCG = target: T1, UGCG (Homo sapiens, UniProt Q16739); assay: Effect of D-PDMP on IHC localization of glycosyltransferases in human CRC cells (UGCG); format: cell-based; conditions: HCT-116, 10p M D-PDMP, 24 h, vs control
T1 construct: endogenous in cells; host or cells: HCT-116
T1 sequence (Q16739 1-394): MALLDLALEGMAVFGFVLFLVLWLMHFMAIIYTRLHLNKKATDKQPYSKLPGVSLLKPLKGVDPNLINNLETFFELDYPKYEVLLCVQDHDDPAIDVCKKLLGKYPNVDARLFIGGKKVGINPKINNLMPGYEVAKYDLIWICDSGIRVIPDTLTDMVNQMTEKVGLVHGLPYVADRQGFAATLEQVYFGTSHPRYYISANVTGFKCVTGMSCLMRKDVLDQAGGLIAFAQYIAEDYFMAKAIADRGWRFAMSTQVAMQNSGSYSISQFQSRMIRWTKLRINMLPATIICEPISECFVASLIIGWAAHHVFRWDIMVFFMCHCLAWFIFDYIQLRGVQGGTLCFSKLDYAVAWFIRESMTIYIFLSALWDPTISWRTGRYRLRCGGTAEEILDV
Experimental: (§1) HCT-116 cells were seeded (10^4) onto sterilized glass coverslips, which were then placed in 6-well sterile plastic trays and grown for 24 h in complete media. Next, the media was replaced with 2 mL of 2% serum-containing media, plus […] D-PDMP. After incubation for 24 and 96 h, the media was removed, and cells were fixed with ethanol, washed, incubated with antibody against β-1,4-GalT-V or UGCG, and photographed.

[2] = system: human colorectal cancer cells (HCT-116); assay: [89Zr] GalT-V antibody binding and internalization (gamma counter); format: cell-based; conditions: HCT-116 pre-incubated with D-PDMP 20 uM
Experimental: Cell cultures were incubated with increasing concentrations of [^89Zr] GalT-V antibody, washed and radioactivity was measured in an automated gamma counter (1282 Compu-gamma CS, Pharmacia/LKB Nuclear, Inc.).
Cell cultures were incubated with increasing concentrations of [^89Zr] GalT-V antibody, washed and radioactivity was measured in a gamma counter. […] GalT-V antibody binding in human coronary arterial endothelial cells (HCAEC) and human colorectal cancer cells (HCT-116) after 2-hour incubation at 37° C.
Cells were pre-incubated with and without an inhibitor of GalT-V, D-PDMP (20 uM), followed by the measurement of binding and internalization of [^89Zr] GalT-V antibody. […] GalT-V antibody (n=3, p**=0.0079).
Cells were incubated in the presence of excess unlabeled (cold, 50 ug/mL) GalT-V antibody as well as [^89Zr] GalT-V Ab. […] (n=3, p****=<0.0001). Results are shown in FIG. 24 which depicts specificity of binding and internalization of [^89Zr] GalT-V antibody in human colorectal cancer cells (HCT-116).

HCT-116 cells [3] = assay: LC-MS sphingolipid levels in HCT-116 cells; format: cell-based, human; conditions: D-PDMP 10 μM, 24 h, vs control
Experimental: HCT-116 cells were seeded ([…]) onto sterilized (100-mm^2) plastic Petri dishes in 10 mL of medium for 24 h. Media was then changed to 2% serum-containing media, with and without D-PDMP (10 μM). After 24 h, media was removed, and total lipids were extracted, using hexane-isopropanol (3:2, by volume) in the presence of sphingolipid internal standards, and subject to MS. […] Data represent averages±SEm, N=3 biological replicates for control and 10 μM D-PDMP in (FIGS. 4A-4H), and the unpaired t-tested was used for statistical analysis.*P≤0.05,**P≤0.01]\
Sphingolipid levels in human CRC tissue and in human cultured CRC cells (HCT-116) were measured by LC-MS, as described previously (23). Visibly normal and CRC tissues (50 mg) were homogenized in chloroform-methanol (2:1), in the presence of sphingolipid internal standards. […] HCT-116 cells were grown in 100 mm^2 sterile, plastic Petri dishes. Lipid extracts were subject to LC-MS, as described (24, 25).

human endothelial cells = conditions: cited from earlier work
renal cancer = conditions: mouse, in vivo; cited from earlier work
β-1,4-GalT-V = target: T2, β-1,4-GalT-V (Homo sapiens, UniProt O43286); assay: Effect of D-PDMP on IHC localization of glycosyltransferases in human CRC cells (β-1,4-GalT-V); format: cell-based; conditions: HCT-116, D-PDMP, 24 and 96 h, vs controls
T2 construct: endogenous in cells; host or cells: HCT-116
T2 sequence (O43286 1-388): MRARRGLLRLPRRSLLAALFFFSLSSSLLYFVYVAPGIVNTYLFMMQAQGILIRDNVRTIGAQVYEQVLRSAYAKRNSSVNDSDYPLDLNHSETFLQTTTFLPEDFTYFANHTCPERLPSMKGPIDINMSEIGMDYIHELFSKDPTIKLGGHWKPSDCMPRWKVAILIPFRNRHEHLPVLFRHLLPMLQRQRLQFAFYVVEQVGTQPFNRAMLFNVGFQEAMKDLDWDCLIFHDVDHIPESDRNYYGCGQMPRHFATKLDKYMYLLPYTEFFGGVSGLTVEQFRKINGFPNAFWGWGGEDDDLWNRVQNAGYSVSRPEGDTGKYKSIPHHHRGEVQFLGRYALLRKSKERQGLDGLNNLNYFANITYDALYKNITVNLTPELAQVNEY
Experimental: as §1

With `CCCCCCCCCC(=O)N[C@H](CN1CCOCC1)[C@H](O)c1ccccc1` [D-PDMP, D-threo-1-phenyl-2-decanoylamino-3-morpholino-1-propanol] as the molecule, how does the “proliferation of HCT-116 cells” value (HCT-116 cells [1]; 24 and 96 h, compared to control cells) read?
The value was “dose- and time-dependent (FIGS. 3A, 3B) decrease in proliferation”.

And the “maximal effective dose (decrease in proliferation)” value (HCT-116 cells [1]; HCT-116, 24 and 96 h)?
The value was 20 µM.

And the UGCG immunofluorescence (UGCG)?
Its UGCG immunofluorescence is “No difference”.

What about the “effect on binding and internalization of [89Zr] GalT-V antibody” value [2] of the same molecule?
Its value is “reduced the binding and internalization”.

What about the “level of Cer” value (HCT-116 cells [3]) of the same molecule?
Its value is “reduced levels”.

And the “level of DHCer” value (HCT-116 cells [3])?
Its value is “reduced levels”.

What about the “level of DHLacCer” value (HCT-116 cells [3]) of the same molecule?
The value was “reduced levels”.

What about the level of dihexosylceramide (HCT-116 cells [3]) of the same molecule?
The level of dihexosylceramide was “reduced levels”.

What about the “level of dihydroGalCer/dihydroGlcCer” value (HCT-116 cells [3]) of the same molecule?
The value was “reduced levels”.

And the level of monohexosylceramides (HCT-116 cells [3])?
Its level of monohexosylceramides is “reduced levels”.

What about the angiogenesis (human endothelial cells) of the same molecule?
Its angiogenesis is “reduced angiogenesis”.

And the GalT-V mass (renal cancer)?
Its GalT-V mass is “markedly reduced”.

And the tumor volume (renal cancer)?
Its tumor volume is “markedly reduced tumor volume”.

What about the GalT-V fluorescence (β-1,4-GalT-V) of the same molecule?
The GalT-V fluorescence was “reduced GalT-V fluorescence”.
